The values below come from patent publication EP0313981A2, “3-(4-Chlorphenyl)-2,2-dimethyl-3-hydroxy-4-(1,2,4-triazol-1-yl)-butyronitril” (BAYER AG, priority 1987, dated 1989).

Converted amounts (≈) assume the structure as drawn.

The test system of one assay is Asper-gillus fumi-gatus. Nature of the assay: Antifungal in vitro activity (MIC), Kimmig medium. Format: cell-based. The settings on record: Aspergillus fumigatus, inoculum 5 x 10³ Keime/ml, 28 °C, 96 h, read-out: MHK-Werte (minimale Hemmkonzentration). On the procedure: (§1) Die in-vitro-Prüfungen wurden mit Keiminokula von durchschnittlich 5 x 10³ Keimen/ml Substrat durchgeführt. Als Nährmedium diente Kimmig-Medium.
(§2) Die Bebrütungstemperatur betrug 28 °C, die Bebrütungsdauer lag bei 24 bis 96 Stunden bei Hefen und 96 Stunden bei Dermatophyten und Schimmelpilzen.

The subject of the next assay is Micro-sporum canis. Nature of the assay: Antifungal in vitro activity (MIC), Kimmig medium. In kind it is cell-based. The settings on record: Microsporum canis, inoculum 5 x 10³ Keime/ml, 28 °C, 96 h, read-out: MHK-Werte (minimale Hemmkonzentration). On the procedure: as §1, §2
Another assay relates to Tricho-phyton mentagr. Nature of the assay: Antifungal in vitro activity (MIC), Kimmig medium. Format: cell-based. The settings on record: Trichophyton mentagrophytes, inoculum 5 x 10³ Keime/ml, 28 °C, 96 h, read-out: MHK-Werte (minimale Hemmkonzentration). On the procedure: as §1, §2
Assay [1] deals with Candida albi-cans und sp. In words: Antifungal in vitro activity (MIC), Kimmig medium. In kind it is cell-based, Candida albicans. The settings on record: inoculum 5 x 10³ Keime/ml, 28 °C, 24 to 96 h, read-out: MHK-Werte (minimale Hemmkonzentration). On the procedure: as §1, §2
In another assay the test system is Toru-lopsis gla-brata. In words: Antifungal in vitro activity (MIC), Kimmig medium. In kind it is cell-based, Torulopsis glabrata. The settings on record: Nakaseomyces glabratus, inoculum 5 x 10³ Keime/ml, 28 °C, 24 to 96 h, read-out: MHK-Werte (minimale Hemmkonzentration). On the procedure: as §1, §2
Another assay has as its system Candida-Zellen. Nature of the assay: Antifungal in vivo activity (oral) in mouse candidiasis. More on the design: species or system Mäuse vom Typ SPF-CF₁. The settings on record: 2 x 5,0 mg/kg per day for 5 days; for Wirkung: mice infected i.v. with 1 x 10⁶ Candida cells, survivors on day 6 p.i.; for Wirkung (in words): mouse candidiasis. On the procedure: Mäuse vom Typ SPF-CF₁ werden intravenös mit 1 x 10⁶ logarithmisch wachsenden Candida-Zellen, die in physiologischer Kochsalzlösung suspendiert wurden, infiziert, Gleichzeitig mit der Infektion werden die Tiere mit jeweils 5,0 mg/kg Körpergewicht der Präparate oral behandelt.
Die Behandlung wird 5 Tage fortgesetzt; die Tagesdosis beträgt jeweils 2 mal 5,0 mg/kg Körpergewicht.
Unbehandelte Tiere sterben 3 bis 6 Tage post infektionem. Die Überlebensrate am 6.Tag post infektionem beträgt bei unbehandelten Kontrolltieren etwa 5 %.

The test system of assay [2] is Trichophyton mentagrophytes. Nature of the assay: Antimicrobial in vivo activity (oral) in experimental guinea pig trichophytosis. More on the design: species or system Meerschweinchen der Rasse Pirbright-white; key to Wirkung: +++++: = sehr gute Wirkung = keine Infektionszeichen am 12. bis 15. Tag p.i.; ++++: = gute Wirkung = geringe Rötung, vereinzelt Schuppen; +++: = Wirkung = Rötung, Schuppen ohne Haarausfall; ++: = schwache Wirkung = Rötung, Schuppen, Haaraus-fall; +: = Spurwirkung = flächiger Haarausfall, entzündliche Hautreaktion; k.w.: = keine Wirkung = kein Unterschied zur unbehandelten Kontrolle. The settings on record: 1 x 2,5 mg/kg per day for 10 days; for Wirkung (in words): guinea pig trichophytosis; for Wirkung: guinea pigs infected on the back with Trichophyton mentagrophytes, signs of infection day 12 to 15 p.i. On the procedure:
Weiße Meerschweinchen der Rasse Pirbright-white werden auf dem geschorenen, nicht skarifizierten Rücken mit einer Mikro- und Makrokonidien-Suspension von Trichophyton mentagrophytes infiziert.
Die infizierten Tiere werden beginnend mit dem Tag der Infektion 1 x täglich mit 2,5 mg/kg Körpergewicht der Präparate oral behandelt. Die Behandlung wird 10 Tage fortgesetzt; die Tagesdosis beträgt jeweils 1 mal 2,5 mg/kg Körpergewicht.
Bei unbehandelten Tieren entwickelt sich innerhalb von 12 Tagen p.i. das typische Bild einer Dermatophytose mit Rötung, Schuppung und Haarausfall bis zum totalen Integument-Defekt an der Infektionsstelle.

In the case of `CC(C#N)C(O)(Cn1cncn1)c1ccc(Cl)cc1` (stereo not drawn) [(A), 3-(4-Chlorphenyl)-3-hydroxy-2-methyl-4-(1,2,4-triazol-1-yl)-butyronitril], the MIC is 64 µg/mL (≈ 231 µM) in the assay with Asper-gillus fumi-gatus; 32 µg/mL (≈ 116 µM) in the assay on Micro-sporum canis; 32 µg/mL (≈ 116 µM) in the assay with Tricho-phyton mentagr.; 16 to 32 µg/mL (≈ 57.8 to 116 µM) in assay [1]; 64 µg/mL (≈ 231 µM) in the assay on Toru-lopsis gla-brata. Further, the Wirkung entry (in the assay with Candida-Zellen; in assay [2]) was “k.w” in each case. Also, the “Wirkung (in words)” value (in the assay on Candida-Zellen; in assay [2]) was “keine Wirkung” each time.

Consider `CC(C)(C#N)C(O)(Cn1cncn1)c1ccc(Cl)cc1` (stereo not drawn) [(I), 3-(4-Chlorphenyl)-2,2-dimethyl-3-hydroxy-4-(1,2,4-triazol-1-yl)-butyronitril], for which the MIC with Asper-gillus fumi-gatus was 64 µg/mL (≈ 220 µM); in the assay on Micro-sporum canis, 4 to 8 µg/mL (≈ 13.8 to 27.5 µM); in the assay on Tricho-phyton mentagr., 4 to 8 µg/mL (≈ 13.8 to 27.5 µM); in assay [1], 4 to 8 µg/mL (≈ 13.8 to 27.5 µM); in the assay on Toru-lopsis gla-brata, 32 to 64 µg/mL (≈ 110 to 220 µM). Besides, the Wirkung entry in the assay on Candida-Zellen is recorded as “++++ (= gute Wirkung = 80 % Überlebende am 6.Tag.p.i.)”; in assay [2] it was “++++”. Further, the “Wirkung (in words)” value (in the assay with Candida-Zellen; in assay [2]) was “gute Wirkung” each time.
